Reference: patent US20070010671A1, “Novel quinazoline derivatives and methods of treatment related to the use thereof” (priority 2003, published 2007)

target: MCH receptor (Homo sapiens, UniProt Q99705); assay: High throughput functional screening FLIPR/FDSS6000: inhibition of MCH-evoked intracellular Ca2+ changes; type: cell-based; settings: class by percent of control at 10^-7 M or IC50
In short: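 In a kinetic calcium-flux format, compounds were tested at various concentrations against 50 nM MCH. Fluo4-loaded cells expressing a constitutively active, non-endogenous receptor were imaged at 488/530 nm for 290 s after agonist addition.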

Q: How did the class turn out when Cc1cc([N+](=O)[O-])ccc1NC(=S)N[C@H]1CC[C@@H](Nc2nc(N(C)C)c3ccccc3n2)CC1 [compound 302, N-(cis-4-{[4-(dimethylamino)quinazolin-2-yl]amino}cyclohexyl)-N′-(2-methyl-4-nitrophenyl)thiourea] was run?
A: 1 (Class 1: The value of percent of control at 10^−7 M was less than 40% or the value of IC50 was less than 50 nM.)

Q: Cc1ccccc1CNC(=S)N[C@H]1CC[C@@H](Nc2nc(N(C)C)c3ccccc3n2)CC1 [compound 303, N-(cis-4-{[4-(dimethylamino)quinazolin-2-yl]amino}cyclohexyl)-N′-(2-methylbenzyl)thiourea] was tested. Which class did it give?
A: 2 (Class 2: The value of percent of control at 10^−7 M was from 40% to 60% or the value of IC50 was from 50 nM to 200 nM.)

Q: With COc1ccc(CNC(=S)N[C@H]2CC[C@@H](Nc3nc(N(C)C)c4ccccc4n3)CC2)cc1OC [compound 304] as the molecule, how does the class read?
A: 3 (Class 3: The value of percent of control at 10^−7 M was more than 60% or the value of IC50 was more than 200 nM.)

Q: Which class does the source give for CN(C)c1nc(N[C@H]2CC[C@@H](NC(=S)NCc3cccc(Cl)c3)CC2)nc2ccccc12 [compound 305, N-(3-chlorobenzyl)-N′-(cis-4-{[4-(dimethylamino)quinazolin-2-yl]amino}cyclohexyl)thiourea] here?
A: 1 (Class 1: The value of percent of control at 10^−7 M was less than 40% or the value of IC50 was less than 50 nM.)

Q: How did the class turn out when CCOC(=O)c1cccc(NC(=S)N[C@H]2CC[C@@H](Nc3nc(N(C)C)c4ccccc4n3)CC2)c1 [compound 306] was run?
A: 1 (Class 1: The value of percent of control at 10^−7 M was less than 40% or the value of IC50 was less than 50 nM.)

Q: CCc1cccc(NC(=S)N[C@H]2CC[C@@H](Nc3nc(N(C)C)c4ccccc4n3)CC2)c1 [compound 307] was tested. Which class did it give?
A: 2 (Class 2: The value of percent of control at 10^−7 M was from 40% to 60% or the value of IC50 was from 50 nM to 200 nM.)

Q: Which class does the source give for CN(C)c1nc(N[C@H]2CC[C@@H](NC(=S)NCc3cccc(F)c3)CC2)nc2ccccc12 [compound 308, N-(cis-4-{[4-(dimethylamino)quinazolin-2-yl]amino}cyclohexyl)-N′-(3-fluorobenzyl)thiourea] here?
A: 2 (Class 2: The value of percent of control at 10^−7 M was from 40% to 60% or the value of IC50 was from 50 nM to 200 nM.)

Q: How did the class turn out when COc1cccc(CNC(=S)N[C@H]2CC[C@@H](Nc3nc(N(C)C)c4ccccc4n3)CC2)c1 [compound 309, N-(cis-4-{[4-(dimethylamino)quinazolin-2-yl]amino}cyclohexyl)-N′-(3-methoxybenzyl)thiourea] was run?
A: 2 (Class 2: The value of percent of control at 10^−7 M was from 40% to 60% or the value of IC50 was from 50 nM to 200 nM.)

Q: For Cc1cccc(CNC(=S)N[C@H]2CC[C@@H](Nc3nc(N(C)C)c4ccccc4n3)CC2)c1 [compound 310, N-(cis-4-{[4-(dimethylamino)quinazolin-2-yl]amino}cyclohexyl)-N′-(3-methylbenzyl)thiourea], which class is on record?
A: 2 (Class 2: The value of percent of control at 10^−7 M was from 40% to 60% or the value of IC50 was from 50 nM to 200 nM.)

Q: For CN(C)c1nc(N[C@H]2CC[C@@H](NC(=S)Nc3ccc(Br)c(Cl)c3)CC2)nc2ccccc12 [compound 311], which class is on record?
A: 3 (Class 3: The value of percent of control at 10^−7 M was more than 60% or the value of IC50 was more than 200 nM.)

Q: Which class does the source give for Cc1cc(NC(=S)N[C@H]2CC[C@@H](Nc3nc(N(C)C)c4ccccc4n3)CC2)ccc1Br [compound 312] here?
A: 3 (Class 3: The value of percent of control at 10^−7 M was more than 60% or the value of IC50 was more than 200 nM.)

Q: How did the class turn out when CN(C)c1nc(N[C@H]2CC[C@@H](NC(=S)Nc3ccc(C(=O)O)cc3)CC2)nc2ccccc12 [compound 313] was run?
A: 3 (Class 3: The value of percent of control at 10^−7 M was more than 60% or the value of IC50 was more than 200 nM.)

Q: Which class does the source give for CN(C)c1nc(N[C@H]2CC[C@@H](NC(=S)Nc3ccc(Cl)cc3C(F)(F)F)CC2)nc2ccccc12 [compound 314, N-[4-chloro-2-(trifluoromethyl)phenyl]-N′-(cis-4-{[4-(dimethylamino)quinazolin-2-yl]amino}cyclohexyl)thiourea] here?
A: 1 (Class 1: The value of percent of control at 10^−7 M was less than 40% or the value of IC50 was less than 50 nM.)

Q: For CCCCCCCCCCc1ccc(NC(=S)N[C@H]2CC[C@@H](Nc3nc(N(C)C)c4ccccc4n3)CC2)cc1 [compound 315], which class is on record?
A: 3 (Class 3: The value of percent of control at 10^−7 M was more than 60% or the value of IC50 was more than 200 nM.)

Q: Cc1cc(F)ccc1NC(=S)N[C@H]1CC[C@@H](Nc2nc(N(C)C)c3ccccc3n2)CC1 [compound 316, N-(cis-4-{[4-(dimethylamino)quinazolin-2-yl]amino}cyclohexyl)-N′-(4-fluoro-2-methylphenyl)thiourea] was tested. Which class did it give?
A: 1 (Class 1: The value of percent of control at 10^−7 M was less than 40% or the value of IC50 was less than 50 nM.)

Q: CN(C)c1nc(N[C@H]2CC[C@@H](NC(=S)Nc3ccc(Oc4ccc([N+](=O)[O-])cc4)cc3)CC2)nc2ccccc12 [compound 317] was tested. Which class did it give?
A: 3 (Class 3: The value of percent of control at 10^−7 M was more than 60% or the value of IC50 was more than 200 nM.)

Q: Which class does the source give for CN(C)c1nc(N[C@H]2CC[C@@H](NC(=S)Nc3ccc(Sc4ccc([N+](=O)[O-])cc4)cc3)CC2)nc2ccccc12 [compound 318] here?
A: 3 (Class 3: The value of percent of control at 10^−7 M was more than 60% or the value of IC50 was more than 200 nM.)

Q: Which class does the source give for CN(C)c1nc(N[C@H]2CC[C@@H](NC(=S)Nc3ccc(S(N)(=O)=O)cc3)CC2)nc2ccccc12 [compound 319] here?
A: 3 (Class 3: The value of percent of control at 10^−7 M was more than 60% or the value of IC50 was more than 200 nM.)

Q: How did the class turn out when COc1ccc(NC(=S)N[C@H]2CC[C@@H](Nc3nc(N(C)C)c4ccccc4n3)CC2)c(C)c1 [compound 320, N-(cis-4-{[4-(dimethylamino)quinazolin-2-yl]amino}cyclohexyl)-N′-(4-methoxy-2-methylphenyl)thiourea] was run?
A: 1 (Class 1: The value of percent of control at 10^−7 M was less than 40% or the value of IC50 was less than 50 nM.)

Q: How did the class turn out when COc1ccc(C(=O)NC(=S)N[C@H]2CC[C@@H](Nc3nc(N(C)C)c4ccccc4n3)CC2)cc1 [compound 321] was run?
A: 3 (Class 3: The value of percent of control at 10^−7 M was more than 60% or the value of IC50 was more than 200 nM.)

Q: How did the class turn out when Cc1ccc(CCNC(=S)N[C@H]2CC[C@@H](Nc3nc(N(C)C)c4ccccc4n3)CC2)cc1 [compound 322] was run?
A: 3 (Class 3: The value of percent of control at 10^−7 M was more than 60% or the value of IC50 was more than 200 nM.)

Q: With CN(C)c1nc(N[C@H]2CC[C@@H](NC(=S)Nc3ccc(Oc4ccccc4)cc3)CC2)nc2ccccc12 [compound 323] as the molecule, how does the class read?
A: 3 (Class 3: The value of percent of control at 10^−7 M was more than 60% or the value of IC50 was more than 200 nM.)

Q: COc1cc(OC)c(NC(=S)N[C@H]2CC[C@@H](Nc3nc(N(C)C)c4ccccc4n3)CC2)cc1Cl [compound 324, N-(5-chloro-2,4-dimethoxyphenyl)-N′-(cis-4-{[4-(dimethylamino)quinazolin-2-yl]amino}cyclohexyl)thiourea] was tested. Which class did it give?
A: 1 (Class 1: The value of percent of control at 10^−7 M was less than 40% or the value of IC50 was less than 50 nM.)

Q: CN(C)c1nc(N[C@H]2CC[C@@H](NC(=S)Nc3ccc4c(c3)CCC4)CC2)nc2ccccc12 [compound 325, N-(2,3-dihydro-1H-inden-5-yl)-N′-(cis-4-{[4-(dimethylamino)quinazolin-2-yl]amino}cyclohexyl)thiourea] was tested. Which class did it give?
A: 2 (Class 2: The value of percent of control at 10^−7 M was from 40% to 60% or the value of IC50 was from 50 nM to 200 nM.)

Q: With CN(C)c1nc(N[C@H]2CC[C@@H](NC(=S)NC(=O)/C=C/c3ccccc3)CC2)nc2ccccc12 [compound 326] as the molecule, how does the class read?
A: 3 (Class 3: The value of percent of control at 10^−7 M was more than 60% or the value of IC50 was more than 200 nM.)

Q: With C/C=C/CNC(=S)N[C@H]1CC[C@@H](Nc2nc(N(C)C)c3ccccc3n2)CC1 [compound 327] as the molecule, how does the class read?
A: 3 (Class 3: The value of percent of control at 10^−7 M was more than 60% or the value of IC50 was more than 200 nM.)

Q: CN(C)c1nc(N[C@H]2CC[C@@H](NC(=S)NC3CCCCCC3)CC2)nc2ccccc12 [compound 328, N-cycloheptyl-N′-(cis-4-{[4-(dimethylamino)quinazolin-2-yl]amino}cyclohexyl)thiourea] was tested. Which class did it give?
A: 2 (Class 2: The value of percent of control at 10^−7 M was from 40% to 60% or the value of IC50 was from 50 nM to 200 nM.)

Q: With C[C@@H](NC(=S)N[C@H]1CC[C@@H](Nc2nc(N(C)C)c3ccccc3n2)CC1)c1ccccc1 [compound 329, N-(cis-4-{[4-(dimethylamino)quinazolin-2-yl]amino}cyclohexyl)-N′-[(1R)-1-phenylethyl]thiourea] as the molecule, how does the class read?
A: 1 (Class 1: The value of percent of control at 10^−7 M was less than 40% or the value of IC50 was less than 50 nM.)

Q: Which class does the source give for CCCCOC(=O)c1ccccc1NC(=O)N[C@H]1CC[C@@H](Nc2nc(N(C)C)c3ccccc3n2)CC1 [compound 330] here?
A: 3 (Class 3: The value of percent of control at 10^−7 M was more than 60% or the value of IC50 was more than 200 nM.)

Q: With COC(=O)c1cc(NC(=O)N[C@H]2CC[C@@H](Nc3nc(N(C)C)c4ccccc4n3)CC2)cc(C(=O)OC)c1 [compound 331] as the molecule, how does the class read?
A: 3 (Class 3: The value of percent of control at 10^−7 M was more than 60% or the value of IC50 was more than 200 nM.)

Q: How did the class turn out when CN(C)c1nc(N[C@H]2CC[C@@H](NC(=O)Nc3ccc(OC(F)(F)F)cc3)CC2)nc2ccccc12 [compound 332] was run?
A: 3 (Class 3: The value of percent of control at 10^−7 M was more than 60% or the value of IC50 was more than 200 nM.)

Q: Which class does the source give for Cc1cc(Br)cc(C)c1NC(=O)N[C@H]1CC[C@@H](Nc2nc(N(C)C)c3ccccc3n2)CC1 [compound 333, N-(4-bromo-2,6-dimethylphenyl)-N′-(cis-4-{[4-(dimethylamino)quinazolin-2-yl]amino}cyclohexyl)urea] here?
A: 1 (Class 1: The value of percent of control at 10^−7 M was less than 40% or the value of IC50 was less than 50 nM.)

Q: For Cc1cc(Br)ccc1NC(=O)N[C@H]1CC[C@@H](Nc2nc(N(C)C)c3ccccc3n2)CC1 [compound 334], which class is on record?
A: 1 (Class 1: The value of percent of control at 10^−7 M was less than 40% or the value of IC50 was less than 50 nM.)
